Experimental data as given in patent US10675284B2, “Treatment of B-cell malignancies by a combination JAK and PI3K inhibitors” (Incyte Corporation, priority 2014, dated 2020).
Like-named read-outs stand apart in the source and are kept apart here.

Experiments:
[1] = target: human JAK1 (a.a. 837-1142) (Homo sapiens, UniProt P23458); test: In vitro JAK kinase assay (HTRF), JAK1; assay type: biochemical
[2] = target: human JAK2 (a.a. 828-1132) (Homo sapiens (Human), UniProt O60674); test: In vitro JAK kinase assay (HTRF), JAK2; assay type: biochemical; conditions: IC50 ratio, 1 mM ATP
Sequence of human JAK2 (a.a. 828-1132) (O60674 828-1132): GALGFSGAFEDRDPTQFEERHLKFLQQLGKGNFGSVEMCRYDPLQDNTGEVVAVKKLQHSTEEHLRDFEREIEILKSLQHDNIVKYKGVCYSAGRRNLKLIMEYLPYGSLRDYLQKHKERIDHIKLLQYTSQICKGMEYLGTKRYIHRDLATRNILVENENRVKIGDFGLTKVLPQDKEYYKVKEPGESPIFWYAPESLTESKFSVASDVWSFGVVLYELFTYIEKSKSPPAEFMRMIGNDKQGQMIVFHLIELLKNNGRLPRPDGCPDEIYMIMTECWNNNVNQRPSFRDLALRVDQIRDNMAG

Sequence of human JAK1 (a.a. 837-1142) (P23458 whole entry, looked up): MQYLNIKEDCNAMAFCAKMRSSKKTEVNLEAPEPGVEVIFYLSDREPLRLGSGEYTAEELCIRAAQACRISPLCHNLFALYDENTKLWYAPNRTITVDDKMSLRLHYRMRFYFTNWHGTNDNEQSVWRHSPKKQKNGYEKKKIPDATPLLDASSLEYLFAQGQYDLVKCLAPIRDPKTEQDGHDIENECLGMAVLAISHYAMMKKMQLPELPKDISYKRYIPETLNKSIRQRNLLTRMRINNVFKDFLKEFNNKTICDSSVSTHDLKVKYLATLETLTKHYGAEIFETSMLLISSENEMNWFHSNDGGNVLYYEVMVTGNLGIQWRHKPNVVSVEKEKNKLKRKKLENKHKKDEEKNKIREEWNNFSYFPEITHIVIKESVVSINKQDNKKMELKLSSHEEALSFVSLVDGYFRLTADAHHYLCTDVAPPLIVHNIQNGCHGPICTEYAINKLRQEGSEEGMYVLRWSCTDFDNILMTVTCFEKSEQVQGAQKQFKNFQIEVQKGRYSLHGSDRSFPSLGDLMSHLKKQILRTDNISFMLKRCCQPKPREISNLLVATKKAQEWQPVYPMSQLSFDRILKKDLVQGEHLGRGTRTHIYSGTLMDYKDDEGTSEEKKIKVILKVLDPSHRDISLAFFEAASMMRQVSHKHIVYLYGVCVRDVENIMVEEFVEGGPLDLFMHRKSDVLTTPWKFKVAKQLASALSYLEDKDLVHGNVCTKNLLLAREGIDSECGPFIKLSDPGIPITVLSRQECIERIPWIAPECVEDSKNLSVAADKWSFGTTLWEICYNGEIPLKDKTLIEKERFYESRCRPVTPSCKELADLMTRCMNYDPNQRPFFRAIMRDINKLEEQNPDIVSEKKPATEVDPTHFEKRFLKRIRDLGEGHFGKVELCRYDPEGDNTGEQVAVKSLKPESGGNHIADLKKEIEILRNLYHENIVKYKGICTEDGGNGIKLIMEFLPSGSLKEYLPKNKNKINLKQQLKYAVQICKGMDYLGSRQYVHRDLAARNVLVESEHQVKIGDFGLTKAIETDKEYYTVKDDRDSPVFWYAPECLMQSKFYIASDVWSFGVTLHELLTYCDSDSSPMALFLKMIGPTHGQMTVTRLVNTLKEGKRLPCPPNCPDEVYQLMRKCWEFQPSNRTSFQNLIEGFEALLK

| Structure (SMILES) | JAK2/JAK1 [2] | IC50 ([1]; 1 mM ATP, read-out: JAK1 IC50) [µM] | IC50 [1] [µM] |
| --- | --- | --- | --- |
| N#CCC(C1CCN(c2cccc(Cl)n2)C1)n1cc(-c2ncnc3[nH]ccc23)cn1 (single isomer, unassigned) [Compound 3, 3-[1-(6-chloropyridin-2-yl)pyrrolidin-3-yl]-3-[4-(7H-pyrrolo[2,3-d]pyrimidin-4-yl)-1H-pyrazol-1-yl]propanenitrile] | >10 | – | < 0.01 |
| C[C@@H](O)c1nc2cnc3ccsc3c2n1[C@H]1CC[C@H](CC#N)OC1 [Compound 1, ((2R,5S)-5-{2-[(1R)-1-hydroxyethyl]-1H-imidazo[4,5-d]thieno[3,2-b]pyridin-1-yl}tetrahydro-2H-pyran-2-yl)acetonitrile] | >10 | < 0.1 | – |
| N#CCC(CN1CCN(C(=O)c2ccc(C#N)cc2F)CC1)n1ccc(-c2ncnc3[nH]ccc23)c1 (stereo not shown) [Compound 6, 4-[(4-{3-cyano-2-[3-(7H-pyrrolo[2,3-d]pyrimidin-4-yl)-1H-pyrrol-1-yl]propyl}piperazin-1-yl)carbonyl]-3-fluorobenzonitrile] | >10 | < 0.01 | – |
| N#CCC(CN1CCN(C(=O)c2ccc(C#N)cc2F)CC1)n1cc(-c2ncnc3[nH]ccc23)cn1 (stereo not shown) [Compound 5, 4-[(4-{3-cyano-2-[4-(7H-pyrrolo[2,3-d]pyrimidin-4-yl)-1H-pyrazol-1-yl]propyl}piperazin-1-yl)carbonyl]-3-fluorobenzonitrile] | >10 | < 0.01 | – |
| N#CCC(C1CCN(c2nc3cccnc3o2)C1)n1cc(-c2ncnc3[nH]ccc23)cn1 (stereo not shown) [Compound 4, 3-(1-[1,3]oxazolo[5,4-b]pyridin-2-ylpyrrolidin-3-yl)-3-[4-(7H-pyrrolo[2,3-d]pyrimidin-4-yl)-1H-pyrazol-1-yl]propanenitrile] | >10 | < 0.01 | – |

The next lines start with results.

| JAK2/JAK1 [2] | IC50 ([1]; 1 mM ATP, read-out: JAK1 IC50) [µM] | Structure (SMILES) | IC50 [1] [µM] |
| --- | --- | --- | --- |
| >10 | < 0.01 | N#CCC1(n2cc(-c3ncnc4[nH]ccc34)cn2)CN(C2CCN(C(=O)c3ccnc(C(F)(F)F)n3)CC2)C1 [Compound 9, [3-[4-(7H-pyrrolo[2,3-d]pyrimidin-4-yl)-1H-pyrazol-1-yl]-1-(1-{[2-(trifluoromethyl)pyrimidin-4-yl]carbonyl}piperidin-4-yl)azetidin-3-yl]acetonitrile] | – |
| >10 | < 0.01 | CC(C)(O)c1cc(O[C@H]2CC[C@@H](N3CC(CC#N)(n4cc(-c5ncnc6[nH]ccc56)cn4)C3)CC2)nc(C(F)(F)F)c1 [Compound 20, {1-(cis-4-{[4-(1-hydroxy-1-methylethyl)-6-(trifluoromethyl)pyridin-2-yl]oxy}cyclohexyl)-3-[4-(7H-pyrrolo[2,3-d]pyrimidin-4-yl)-1H-pyrazol-1-yl]azetidin-3-yl}acetonitrile] | – |
| >10 | < 0.01 | C[C@@H](CO)NCc1cc(OC2CCN([C@H]3C[C@](CC#N)(n4cc(-c5ncnc6[nH]ccc56)cn4)C3)CC2)nc(C(F)(F)F)c1 [Compound 23, {trans-3-(4-{[4-({[(1S)-2-hydroxy-1-methylethyl]amino}methyl)-6-(trifluoromethyl)pyridin-2-yl]oxy}piperidin-1-yl)-1-[4-(7H-pyrrolo[2,3-d]pyrimidin-4-yl)-1H-pyrazol-1-yl]cyclobutyl}acetonitrile] | – |
| – | < 0.01 | N#CC[C@]1(n2cc(-c3ncnc4[nH]ccc34)cn2)C[C@H](N2CCC(Oc3cc(CN4CC(O)C4)cc(C(F)(F)F)n3)CC2)C1 [Compound 11, {trans-3-(4-{[4-[(3-hydroxyazetidin-1-yl)methyl]-6-(trifluoromethyl)pyridin-2-yl]oxy}piperidin-1-yl)-1-[4-(7H-pyrrolo[2,3-d]pyrimidin-4-yl)-1H-pyrazol-1-yl]cyclobutyl}acetonitrile] | – |
| >10 | < 0.01 | N#CC[C@]1(n2cc(-c3ncnc4[nH]ccc34)cn2)C[C@H](N2CCC(Oc3cc(CN4CCC[C@H]4CO)cc(C(F)(F)F)n3)CC2)C1 [Compound 12, {trans-3-(4-{[4-{[(2S)-2-(hydroxymethyl)pyrrolidin-1-yl]methyl}-6-(trifluoromethyl)pyridin-2-yl]oxy}piperidin-1-yl)-1-[4-(7H-pyrrolo[2,3-d]pyrimidin-4-yl)-1H-pyrazol-1-yl]cyclobutyl}acetonitrile] | – |
